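Growth conditions: 96-well plates. Treatment: test compound, 48 hours, 5 concentrations. Analysis: linear interpolation between bracketing concentrations; unreached endpoints set to highest concentration. TGI: concentration producing complete growth inhibition.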
Columns and labels:
Assay in all cases: NCI tumour cell line growth inhibition, 48 h
786-0 renal = test system: 786-0 renal
A498 renal = test system: A498 renal
A549 NSCLC = test system: A549 NSCLC
ACHN renal = test system: ACHN renal
CAKI-1 renal = test system: CAKI-1 renal
CCRF-CEM leukemia = test system: CCRF-CEM leukemia
COLO 205 colon = test system: COLO 205 colon
DLD-1 colon = test system: DLD-1 colon
DMS 114 small cell lung = test system: DMS 114 small cell lung
DMS 273 small cell lung = test system: DMS 273 small cell lung
EKVX NSCLC = test system: EKVX NSCLC
HCC-2998 colon = test system: HCC-2998 colon
HCT-116 colon = test system: HCT-116 colon
HCT-15 colon = test system: HCT-15 colon
HL-60(TB) leukemia = test system: HL-60(TB) leukemia
HOP-18 NSCLC = test system: HOP-18 NSCLC
HOP-62 NSCLC = test system: HOP-62 NSCLC
HT29 colon = test system: HT29 colon
IGROV1 ovarian = test system: IGROV1 ovarian
K-562 leukemia = test system: K-562 leukemia
KM12 colon = test system: KM12 colon
KM20L2 colon = test system: KM20L2 colon
LOX IMVI melanoma = test system: LOX IMVI melanoma
LXFL 529 NSCLC = test system: LXFL 529 NSCLC
M14 melanoma = test system: M14 melanoma
M19-MEL melanoma = test system: M19-MEL melanoma
MALME-3M melanoma = test system: MALME-3M melanoma
MOLT-4 leukemia = test system: MOLT-4 leukemia
NCI-H226 lung = test system: NCI-H226 lung
NCI-H23 lung = test system: NCI-H23 lung
NCI-H460 lung = test system: NCI-H460 lung
NCI-H522 lung = test system: NCI-H522 lung
OVCAR-3 ovarian = test system: OVCAR-3 ovarian
OVCAR-4 ovarian = test system: OVCAR-4 ovarian
OVCAR-5 ovarian = test system: OVCAR-5 ovarian
RPMI-8226 leukemia = test system: RPMI-8226 leukemia
RXF 393 renal = test system: RXF 393 renal
RXF-631 renal = test system: RXF-631 renal
SF-268 CNS = test system: SF-268 CNS
SF-295 CNS = test system: SF-295 CNS
SF-539 CNS = test system: SF-539 CNS
SK-MEL-2 melanoma = test system: SK-MEL-2 melanoma
SK-MEL-28 melanoma = test system: SK-MEL-28 melanoma
SK-MEL-5 melanoma = test system: SK-MEL-5 melanoma
SK-OV-3 ovarian = test system: SK-OV-3 ovarian
SN12C renal = test system: SN12C renal
SNB-19 CNS = test system: SNB-19 CNS
SNB-75 CNS = test system: SNB-75 CNS
SNB-78 CNS = test system: SNB-78 CNS
SR leukemia = test system: SR leukemia
SW-620 colon = test system: SW-620 colon
TK-10 renal = test system: TK-10 renal
U251 CNS = test system: U251 CNS
UACC-257 melanoma = test system: UACC-257 melanoma
UACC-62 melanoma = test system: UACC-62 melanoma
UO-31 renal = test system: UO-31 renal

Measured: TGI

COC(=O)/C(=N/NC(=O)C[N+](C)(C)C)C(C(=O)OC)C(=O)C(=O)Nc1ccc(F)cc1 (stereo unspecified)
> 100 µM: all assays above

— PubChem BioAssay (NCI)
